Experimental data: ChEMBL document CHEMBL3108667, “Potent and selective inhibitors of CDPK1 from T. gondii and C. parvum based on a 5-aminopyrazole-4-carboxamide scaffold” (ACS Med Chem Lett, 2014)

Tests used:
cells = conditions: Homo sapiens, CRL8155
[1] = target: T1, Calmodulin-domain protein kinase 1 (Toxoplasma gondii, UniProt Q9BJF5)
T1 sequence (Q9BJF5 whole entry): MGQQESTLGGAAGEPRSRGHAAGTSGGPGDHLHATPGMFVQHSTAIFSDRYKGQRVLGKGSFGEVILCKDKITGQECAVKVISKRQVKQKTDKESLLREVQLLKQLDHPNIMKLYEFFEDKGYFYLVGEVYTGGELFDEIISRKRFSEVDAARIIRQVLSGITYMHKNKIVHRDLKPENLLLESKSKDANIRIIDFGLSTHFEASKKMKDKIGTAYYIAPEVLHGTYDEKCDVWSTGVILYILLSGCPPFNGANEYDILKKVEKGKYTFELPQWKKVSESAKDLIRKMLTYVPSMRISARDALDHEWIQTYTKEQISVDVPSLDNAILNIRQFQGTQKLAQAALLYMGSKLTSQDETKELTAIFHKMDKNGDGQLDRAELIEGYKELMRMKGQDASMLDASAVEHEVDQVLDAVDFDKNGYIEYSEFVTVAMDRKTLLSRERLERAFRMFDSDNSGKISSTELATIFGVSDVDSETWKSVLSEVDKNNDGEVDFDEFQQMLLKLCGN

in vivo [2] = conditions: mouse, po, 10 mg/kg
in vivo [3] = conditions: mouse, plasma, po, 10 mg/kg

Q: For CCOc1ccc2cc(-c3nn(C(C)(C)C)c(N)c3C(N)=O)ccc2c1, which EC50 (cells) is on record?
A: > 30 µM

Q: With NC(=O)c1c(-c2ccc3ccccc3c2)nn(CC(F)(F)F)c1N as the compound, how does the EC50 (cells) read?
A: > 30 µM

Q: Which EC50 (cells) does the source give for CC(C)(C)Cn1nc(-c2ccc3ccccc3c2)c(C(N)=O)c1N here?
A: > 40 µM

Q: Which EC50 (cells) does the source give for COc1ccc2cc(-c3nn(C(C)(C)C)c(N)c3C(N)=O)ccc2c1 here?
A: > 40 µM

Q: For CC(C)(C)n1nc(-c2ccc3c(N)n[nH]c3c2)c(C(N)=O)c1N, which IC50 [1] is on record?
A: 0.04 µM

Q: With CC(C)(C)n1nc(-c2cnc3ccccc3c2)c(C(N)=O)c1N as the compound, how does the EC50 (cells) read?
A: > 40 µM

Q: With CCOc1ccc2cc(-c3nn(C(C)(C)C)c(N)c3C(N)=O)cnc2c1 as the compound, how does the EC50 (cells) read?
A: > 30 µM

Q: And the Cmax at 1 h (in vivo [2])?
A: 10 µM

Q: What about the AUC (in vivo [3]) of the same compound?
A: 41.7 µM·h
